# Experimental data from patent US20100029615A1, “BENZIMIDAZOLE DERIVATIVES” (priority 2006, published 2010).
# Structures can show the parent of a compound that is named as a salt.
# Target: T1, SMO (Mus musculus, UniProt P56726)
# T1 construct: endogenous in cells; host or cells: C3H10T1/2 (ATCC #CCL-226)
# Assay: Smoothened (SMO)/Sonic Hedgehog (SHh) Transient Transcriptional Activation Assay (Gli-luciferase reporter in C3H10T1/2 cells)
# Assay type: cell-based, murine
# Conditions: 2 μM test compound, SHh 250 ng/ml, 20 hrs, 2 µM
# Outline: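 C3H10T1/2 cells transiently transfected with a 10× murine Gli-responsive firefly luciferase reporter plus pEGFP, serum-starved 20 h in 0.5% calf serum, then treated with compounds (2 uM–2 nM final) and 250 ng/ml recombinant human SHh for 20 h at 37 °C. Read-out: Dual-Glo luminescence.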
# T1 sequence (P56726 33-793): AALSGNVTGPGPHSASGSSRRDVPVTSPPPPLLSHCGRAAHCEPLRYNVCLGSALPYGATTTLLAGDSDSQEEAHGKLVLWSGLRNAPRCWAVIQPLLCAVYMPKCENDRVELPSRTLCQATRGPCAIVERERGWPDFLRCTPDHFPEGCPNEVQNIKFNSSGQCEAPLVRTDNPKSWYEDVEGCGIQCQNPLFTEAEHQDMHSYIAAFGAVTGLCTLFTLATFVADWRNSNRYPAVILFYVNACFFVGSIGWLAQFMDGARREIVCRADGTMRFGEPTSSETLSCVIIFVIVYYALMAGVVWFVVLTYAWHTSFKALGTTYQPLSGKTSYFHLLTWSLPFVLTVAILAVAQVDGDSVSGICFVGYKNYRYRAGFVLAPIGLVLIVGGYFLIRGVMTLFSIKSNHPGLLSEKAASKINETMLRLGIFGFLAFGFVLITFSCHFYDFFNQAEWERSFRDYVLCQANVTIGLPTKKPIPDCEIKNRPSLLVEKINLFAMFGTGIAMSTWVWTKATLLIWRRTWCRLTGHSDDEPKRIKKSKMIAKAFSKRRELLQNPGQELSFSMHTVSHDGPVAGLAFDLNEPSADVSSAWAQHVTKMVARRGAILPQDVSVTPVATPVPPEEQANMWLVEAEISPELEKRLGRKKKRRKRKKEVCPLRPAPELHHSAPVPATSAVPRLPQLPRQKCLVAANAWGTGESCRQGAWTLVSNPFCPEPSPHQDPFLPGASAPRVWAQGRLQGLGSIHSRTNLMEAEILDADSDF
row,Structure (SMILES),SMO CELL % INHIBITION @ 2 μM
1,"COc1cc(OC)cc(C(=O)N[C@@H]2CCC[C@H](c3nc4ccc(C(F)(F)F)cc4[nH]3)C2)c1 [Example 171, 3,5-dimethoxy-N-{(1R,3S)-3-[6-(trifluoromethyl)-1H-benzimidazol-2-yl]cyclohexyl} benzamide (+)-tartrate]",107.2%

# Same assay, conditions: C3H 10T1/2, 2 μM test compound, SHh 250 ng/ml, 20 hrs, read-out: SMO CELL % INHIBITION @ 2 μM
row,Structure (SMILES),inhibition at 2 µM
1,"O=C(NC1CCCC(c2nc3ccccc3[nH]2)C1)c1ccc(O)c(Cl)c1 (centres unmarked) [Example 147, N-[3-(1H-benzimidazol-2-yl)cyclohexyl]-3-chloro-4-hydroxybenz-amide triflouroacetate]",68%
2,"O=C(CCc1nc2ccccc2[nH]1)NC1CCCC(c2nc3ccccc3[nH]2)C1 (centres unmarked) [Example 148, 3-(1H-benzimidazol-2-yl)-N-[3-(1H-benzimidazol-2-yl)cyclohexyl]-propanamide triflouroacetate]",50%
3,"O=C(N[C@@H]1CCC[C@H](c2nc3cc(Br)ccc3[nH]2)C1)c1ccc2c(c1)OCCO2 [Example 149, N-[(1R,3S)-3-(5-bromo-1H-benzimidazol-2-yl)cyclohexyl]-2,3-dihydro-1,4-benzodioxine-6-carboxamide HCl]",103%
4,"O=C(N[C@H]1CCC[C@@H](c2nc3cc(Br)ccc3[nH]2)C1)c1ccc2c(c1)OCCO2 [Example 150, N-[(1S,3R)-3-(5-bromo-1H-benzimidazol-2-yl)cyclohexyl]-2,3-dihydro-1,4-benzodioxine-6-carboxamide HCl]",45%
5,"O=C(N[C@@H]1CCC[C@H](c2nc3cc(C(F)(F)F)ccc3[nH]2)C1)c1ccc2c(c1)OCCO2 [Example 151, N-{(1R,3S)-3-[5-(trifluoromethyl)-1H-benzimidazol-2-yl]cyclohexyl}-2,3-dihydro-1,4-benzodioxine-6-carboxamide HCl]",106%
6,"O=C(N[C@H]1CCC[C@@H](c2nc3cc(C(F)(F)F)ccc3[nH]2)C1)c1ccc2c(c1)OCCO2 [Example 152, N-{(1S,3R)-3-[5-(trifluoromethyl)-1H-benzimidazol-2-yl]cyclohexyl}-2,3-dihydro-1,4-benzodioxine-6-carboxamide HCl]",80%
7,"O=C(NC1CCCC(c2nc3ccccc3[nH]2)C1)c1cc(-c2ccccn2)n[nH]1 (centres unmarked) [Example 153, N-[3-(1H-benzimidazol-2-yl)cyclohexyl]-3-pyridin-2-yl-1H-pyrazole-5-carboxamide triflouroacetate]",46%
8,"O=C(Cn1ccc2ccccc2c1=O)NC1CCCC(c2nc3ccccc3[nH]2)C1 (centres unmarked) [Example 154, N-[3-(1H-benzimidazol-2-yl)cyclohexyl]-2-(1-oxoisoquinolin-2(1H)-yl)acetamide triflouroacetate]",57%
9,"CCc1n[nH]c(C(=O)NC2CCCC(c3nc4ccccc4[nH]3)C2)c1C (centres unmarked) [Example 155, N-[3-(1H-benzimidazol-2-yl)cyclohexyl]-3-ethyl-4-methyl-1H-pyrazol-5-carboxamide triflouroacetate]",64%
10,"Cc1ccn2cc(CCC(=O)NC3CCCC(c4nc5ccccc5[nH]4)C3)nc2c1 (centres unmarked) [Example 156, N-[3-(1H-benzimidazol-2-yl)cyclohexyl]-3-(7-methylimidazo [1,2-a]pyridin-2-yl)propanamide triflouroacetate]",53%
11,"CC(=O)c1ccc(OCC(=O)NC2CCCC(c3nc4ccccc4[nH]3)C2)cc1 (centres unmarked) [Example 157, 2-(4-acetylphenoxy)-N-[3-(1H-benzimidazol-2-yl)cyclohexyl] acetamide triflouroacetate]",52%
12,"O=C(NC1CCCC(c2nc3ccccc3[nH]2)C1)c1ccc2[nH]c(=O)[nH]c(=O)c2c1 (centres unmarked) [Example 158, N-[3-(1H-benzimidazol-2-yl)cyclohexyl]-2,4-dioxo-1,2,3,4-tetrahydroquin-azoline-6-carboxamide triflouroacetate]",73%
13,"Cn1ccnc1-c1ccc(C(=O)NC2CCCC(c3nc4ccccc4[nH]3)C2)cc1 (centres unmarked) [Example 159, N-[3-(1H-benzimidazol-2-yl)cyclohexyl]-4-(1-methyl-1H-imidazol-2-yl)benzamide triflouroacetate]",78%
14,"O=C(NC1CCCC(c2nc3ccccc3[nH]2)C1)c1ccc(-c2cnco2)cc1 (centres unmarked) [Example 160, N-[3-(1H-benzimidazol-2-yl)cyclohexyl]-4-(1,3-oxazol-5-yl)benzamide triflouroacetate]",72%
15,"O=C(NC1CCCC(c2nc3ccccc3[nH]2)C1)c1ccc2snnc2c1 (centres unmarked) [Example 161, N-[3-(1H-benzimidazol-2-yl)cyclohexyl]-1,2,3-benzothiadiazole-5-carboxamide triflouroacetate]",54%
16,"CN(C)S(=O)(=O)CC(=O)NC1CCCC(c2nc3ccccc3[nH]2)C1 (centres unmarked) [Example 162, N-[3-(1H-benzimidazol-2-yl)cyclohexyl]-2-{(dimethylamino)-sulfonyl]-acetamide triflouroacetate]",71%
17,"O=C(NC1CCCC(c2nc3ccccc3[nH]2)C1)c1ccc(-n2cnnn2)cc1 (centres unmarked) [Example 163, N-[3-(1H-benzimidazol-2-yl)cyclohexyl]-4-(1H-tetrazol-1-yl)benzamide triflouroacetate]",95%

row,Structure (SMILES),inhibition at 2 µM
1,"Cn1ccnc1C(=O)NC1CCCC(c2nc3ccccc3[nH]2)C1 (centres unmarked) [Example 164, N-[3-(1H-benzimidazol-2-yl)cyclohexyl]-1-methyl-1H-imidazole-2-carboxamide triflouroacetate]",106%
2,"COc1cc(C(=O)N[C@@H]2CCC[C@H](c3nc4ccccc4[nH]3)C2)ccn1 [Example 165, N-[(1R,3S)-3-(1H-benzimidazol-2-yl)cyclohexyl]-2-methoxyisonico-tinamide HCl]",63%
3,"COc1cc(OC)cc(C(=O)N[C@@H]2CCC[C@H](c3nc4ccccc4[nH]3)C2)c1 [Example 166, N-[(1R,3S)-3-(1H-benzimidazol-2-yl)cyclohexyl]-3,5-dimethoxybenz-amide HCl]",109%
4,"COc1cc(OC)cc(C(=O)N[C@@H]2CCC[C@H](c3nc4ccccc4n3C)C2)c1 [Example 167, 3,5-dimethoxy-N[(1R,3S)-3-(1-methyl-1H-benzimidazol-2-yl)cyclohexyl] benzamide HCl]",101%
5,"Cc1ccc2nc([C@H]3CCC[C@@H](NC(=O)c4ccc5c(c4)OCCO5)C3)[nH]c2c1 [Example 168, N-[(1R,3S)-3-(6-methyl-1H-benzimidazol-2-yl)cyclohexyl]-2,3-dihydro-1,4-benzodioxine-6-carboxamide HCl]",106%
6,"O=C(N[C@@H]1CCC[C@H](c2nc3ccccc3[nH]2)C1)c1cnc(O)c(Cl)c1 [Example 169, N-[(1R,3S)-3-(1H-benzimidazol-2-yl)cyclohexyl]-5-chloro-6-hydroxynicotin-amide HCl]",93%
7,"COc1cc(OC)cc(C(=O)N[C@@H]2CCC[C@H](c3nc4ccc(C(F)(F)F)cc4[nH]3)C2)c1 [Example 170, 3,5-dimethoxy-N-{(1R,3S)-3-[6-(trifluoromethyl)-1H-benzimidazol-2-yl]cyclohexyl} benzamide HCl]",110%
8,"N#Cc1ccc2nc([C@H]3CCC[C@@H](NC(=O)c4ccc5c(c4)OCCO5)C3)[nH]c2c1 [Example 172, N-[(1R,3S)-3-(6-cyano-1H-benzimidazol-2-yl)cyclohexyl]-2,3-dihydro-1,4-benzodioxine-6-carboxamide HCl]",90%
9,"O=C1COc2ccc(C(=O)N[C@@H]3CCC[C@H](c4nc5ccccc5[nH]4)C3)cc2N1 [Example 173, N-[(1R,3S)-3-(1H-benzimidazol-2-yl)cyclohexyl]-3-oxo-3,4-dihydro-2H-1,4-benzoxazine-6-carboxamide HCl]",97%
10,"Cn1cncc1C(=O)N[C@@H]1CCC[C@H](c2nc3ccccc3[nH]2)C1 [Example 174, N-[(1R,3S)-3-(1H-benzimidazol-2-yl)cyclohexyl]-1-methyl-1H-imidazole-5-carboxamide HCl]",64%
11,"Cn1c(C(=O)N[C@@H]2CCC[C@H](c3nc4ccccc4[nH]3)C2)nc2ccccc21 [Example 175, N-[(1R,3S)-3-(1H-benzimidazol-2-yl)cyclohexyl]-1-methyl-1H-benzimidazole-2-carboxamide HCl]",81%
12,"O=C(N[C@@H]1CCC[C@H](c2nc3ccccc3[nH]2)C1)c1nc2ccccc2[nH]1 [Example 176, N-[(1R,3S)-3-(1H-benzimidazol-2-yl)cyclohexyl]-1H-benzimidazole-2-carboxamide HCl]",57%
13,"Cc1cc(C(=O)N[C@@H]2CCC[C@H](c3nc4ccccc4[nH]3)C2)n(C)n1 [Example 177, N-[(1R,3S)-3-(1H-benzimidazol-2-yl)cyclohexyl]-1,3-dimethyl-1H-pyrazole-5-carboxamide HCl]",73%
14,"O=C(N[C@@H]1CCC[C@H](c2nc3ccc(Cl)cc3[nH]2)C1)c1ccc2c(c1)OCCO2 [Example 178, N-[(1R,3S)-3-(6-chloro-1H-benzimidazol-2-yl)cyclohexyl]-2,3-dihydro-1,4-benzodioxine-6-carboxamide HCl]",110%
15,"O=C(N[C@H]1CCC[C@@H](c2nc3ccc(Cl)cc3[nH]2)C1)c1ccc2c(c1)OCCO2 [Example 179, N-[(1S,3R)-3-(6-chloro-1H-benzimidazol-2-yl)cyclohexyl]-2,3-dihydro-1,4-benzodioxine-6-carboxamide HCl]",106%
16,"COc1ccc2nc([C@H]3CCC[C@@H](NC(=O)c4ccc5c(c4)OCCO5)C3)[nH]c2c1 [Example 180, N-[(1R,3S)-3-(6-methoxy-1H-benzimidazol-2-yl)cyclohexyl]-2,3-dihydro-1,4-benzodioxine-6-carboxamide HCl]",107%
17,"O=C(N[C@@H]1CCC[C@H](c2nc3ccccc3[nH]2)C1)c1cc2cc(Cl)ccc2o1 [Example 181, N-[(1R,3S)-3-(1H-benzimidazol-2-yl)cyclohexyl]-5-chloro-1-benzofuran-2-carboxamide triflouroacetate]",104%
